Measured values from publication PMC9508125, “The evolutionary advantage of an aromatic clamp in plant family 3 glycoside exo-hydrolases” (Nature Communications, 2022).
Substitutions are numbered along the chain they refer to.

How the values were obtained:
Assay in all cases: Steady-state apparent kinetic constants with substrates
Assay type in all cases: biochemical
[1] = molecular target: T1, HvExoI W286F/W434F mutant (Hordeum vulgare, UniProt Q9XEI3, W311F/W459F); conditions: substance is the substrate
T1 sequence (Q9XEI3 26-630 W311F/W459F): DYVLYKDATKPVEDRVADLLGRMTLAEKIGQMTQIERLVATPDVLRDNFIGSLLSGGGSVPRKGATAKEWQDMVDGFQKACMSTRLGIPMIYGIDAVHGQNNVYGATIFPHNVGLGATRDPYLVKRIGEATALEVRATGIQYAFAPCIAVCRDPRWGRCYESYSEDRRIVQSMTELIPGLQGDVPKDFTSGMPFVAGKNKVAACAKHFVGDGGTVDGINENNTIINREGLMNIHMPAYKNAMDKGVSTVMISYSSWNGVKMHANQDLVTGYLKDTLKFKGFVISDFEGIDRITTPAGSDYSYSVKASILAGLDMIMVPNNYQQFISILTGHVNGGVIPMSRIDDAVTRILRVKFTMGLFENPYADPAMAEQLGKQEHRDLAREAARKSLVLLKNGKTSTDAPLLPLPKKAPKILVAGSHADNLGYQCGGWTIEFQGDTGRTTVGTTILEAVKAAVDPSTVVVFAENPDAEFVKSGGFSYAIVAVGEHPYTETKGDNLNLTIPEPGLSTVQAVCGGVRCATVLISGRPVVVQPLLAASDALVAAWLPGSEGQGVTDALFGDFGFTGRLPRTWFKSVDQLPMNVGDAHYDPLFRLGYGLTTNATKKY
Experimental: (§1) Dependency of activities of WT and mutant HvExoI on pH (McIlvaine buffers in the pH range of 3.5–8.5 at 30 °C) and temperature (100 mM sodium acetate buffer, pH 5.25, temperature range 0–80 °C, 15 min incubations) were determined using 0.2% (w/v) 4NP-Glc[21],[59]. Relative rates of hydrolysis of β-linked poly-, oligosaccharides, and aryl-glucosides were determined using near-homogenous HvExoI at 50 pmoles. […] Kinetic parameters were calculated from the analyses of Michaelis-Menten plots with Grafit 7.0.3[62] and processed by a proportional weighted fit, using nonlinear regression. The relative rates of hydrolysis, kinetic, and inhibition data were rounded to one or two decimal points (Supplementary Tables 2–4).

HvExoI W434Y mutant = molecular target: T2, HvExoI W434Y mutant (Hordeum vulgare, UniProt Q9XEI3, W459Y); conditions: substance is the substrate
T2 sequence (Q9XEI3 26-630 W459Y): T1 sequence (Q9XEI3 26-630 W311F/W459F) with F286W, F434Y
Experimental: as §1

HvExoI W286F mutant = molecular target: T3, HvExoI W286F mutant (Hordeum vulgare, UniProt Q9XEI3, W311F); conditions: substance is the substrate
T3 sequence (Q9XEI3 26-630 W311F): T1 sequence (Q9XEI3 26-630 W311F/W459F) with F434W
Experimental: as §1

HvExoI W434A mutant = molecular target: T4, HvExoI W434A mutant (Hordeum vulgare, UniProt Q9XEI3, W459A)
T4 sequence (Q9XEI3 26-630 W459A): T1 sequence (Q9XEI3 26-630 W311F/W459F) with F286W, F434A
Experimental: as §1

Row | Compound | kcat [1] | Km (HvExoI W434Y mutant) | kcat (HvExoI W434Y mutant) | Km (HvExoI W286F mutant) | kcat (HvExoI W286F mutant) | fold decrease of kcat compared to WT (HvExoI W434A mutant)
1 | laminarin | 0.4 ± 0.1 s⁻¹ | 100 ± 10 µM | 0.8 ± 0.1 s⁻¹ | 200 ± 10 µM | 4.5 ± 0.3 s⁻¹ | 
2 | OC[C@H]1O[C@@H](O[C@H]2[C@H](O)[C@@H](CO)OC(O)[C@@H]2O)[C@H](O)[C@@H](O)[C@@H]1O (stereo partly drawn) [Laminaribiose] |  |  |  |  |  | about 21 fold
